According to ChEMBL document CHEMBL5365532, “Discovery of Triazinone Derivatives as Novel, Specific, and Direct NLRP3 Inflammasome Inhibitors for the Treatment of DSS-Induced Ulcerative Colitis” (J Med Chem, 2023):
Calls of active or inactive are those of the source. The calls are words filed in the database; no cut-off is given here.

Assays:
[1] = biological target: NACHT, LRR and PYD domains-containing protein 3 (Mus musculus, UniProt Q8R4B8); assay: Inhibition of NLRP3 inflammasome in C57BL/6 mouse BMDM cells assessed as inhibition of LPS/nigericin-induced IL-1 beta secretion pretreated with LPS for 3 hrs followed by incubation with compound for 40 mins and later stimulated with nigericin for 35 mins by ELISA; format: cell-based
Chain of NACHT, LRR and PYD domains-containing protein 3 (Q8R4B8 whole entry, the tested form may be a part): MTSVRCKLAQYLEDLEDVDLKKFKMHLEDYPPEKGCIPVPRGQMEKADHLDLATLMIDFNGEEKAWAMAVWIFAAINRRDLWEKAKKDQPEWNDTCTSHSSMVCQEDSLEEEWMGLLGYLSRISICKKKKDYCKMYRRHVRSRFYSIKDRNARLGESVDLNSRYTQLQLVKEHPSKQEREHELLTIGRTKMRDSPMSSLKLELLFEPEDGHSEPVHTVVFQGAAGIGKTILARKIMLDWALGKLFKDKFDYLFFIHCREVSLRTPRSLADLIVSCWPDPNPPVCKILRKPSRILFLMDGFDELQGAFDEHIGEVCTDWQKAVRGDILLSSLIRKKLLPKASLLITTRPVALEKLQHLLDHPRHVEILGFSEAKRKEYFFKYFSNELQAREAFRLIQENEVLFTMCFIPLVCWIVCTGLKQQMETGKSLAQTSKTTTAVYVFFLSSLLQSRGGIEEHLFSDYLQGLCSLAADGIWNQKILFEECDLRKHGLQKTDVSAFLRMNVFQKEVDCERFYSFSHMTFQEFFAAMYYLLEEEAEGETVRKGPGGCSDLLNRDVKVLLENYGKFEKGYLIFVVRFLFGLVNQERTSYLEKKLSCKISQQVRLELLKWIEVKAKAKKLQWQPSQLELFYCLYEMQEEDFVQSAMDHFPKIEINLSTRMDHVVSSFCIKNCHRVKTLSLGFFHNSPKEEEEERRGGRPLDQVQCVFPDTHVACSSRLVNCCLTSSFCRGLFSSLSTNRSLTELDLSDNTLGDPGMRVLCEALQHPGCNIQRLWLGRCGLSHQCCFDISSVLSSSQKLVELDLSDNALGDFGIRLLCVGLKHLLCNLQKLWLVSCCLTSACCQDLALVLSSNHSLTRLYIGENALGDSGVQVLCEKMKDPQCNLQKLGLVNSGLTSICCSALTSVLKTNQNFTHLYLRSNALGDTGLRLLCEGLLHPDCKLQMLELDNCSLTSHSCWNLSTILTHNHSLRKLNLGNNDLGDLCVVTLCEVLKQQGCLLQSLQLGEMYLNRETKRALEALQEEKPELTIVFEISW

THP-1 [2] = assay: Effect on pro-IL-1beta protein expression in PMA-differentiated human THP-1 cells at 0.2 to 0.8 uM pretreated with compound for 40 mins followed by LPS challenge for 3 hrs by western blot analysis; format: functional, cell-based; conditions: dose 0.2-0.8 µM, time 220.0 min
[3] = Tmax in BALB/c mouse at 10 mg/kg, po; format: ADME, organism-based; conditions: in vivo
[4] = biological target: NACHT, LRR and PYD domains-containing protein 3 (Mus musculus) (UniProt Q8R4B8); assay: Inhibition of NLRP3 inflammasome in C57BL/6 mouse BMDM cells assessed as inhibition of LPS/alum-induced IL-1 beta secretion at 0.2 to 0.8 uM pretreated with LPS for 3 hrs followed by incubation with compound for 40 mins and later stimulated with alum for 4 hrs by ELISA; format: cell-based; conditions: dose 0.2-0.8 µM, time 280.0 min
Chain of NACHT, LRR and PYD domains-containing protein 3 (Mus musculus) (Q8R4B8 whole entry, the tested form may be a part): as above

THP-1 [5] = assay: Effect on ASC protein expression in PMA-differentiated human THP-1 cells at 0.2 to 0.8 uM pretreated with LPS for 3 hrs followed by incubation with compound for 40 mins and later stimulated with nigericin for 35 mins by western blot analysis; format: functional, cell-based; conditions: dose 0.2-0.8 µM, time 75.0 min
Mus musculus [6] = assay: Antiinflammatory activity against DSS-induced ulcerative colitis C57BL/6 mouse model assessed as decrease in IL-1 beta level in colon at 10 to 30 mg/kg, ip fed with DSS for 6 days followed by administration with compound for 5 days and measured on day 11 by ELISA; format: functional, organism-based; conditions: dose 10-30 mg/kg, time 5.0 day
[7] = biological target: NACHT, LRR and PYD domains-containing protein 3 (Mus musculus) (UniProt Q8R4B8); assay: Inhibition of NLRP3 inflammasome in C57BL/6 mouse BMDM cells assessed as inhibition of LPS/MSU-induced IL-1 beta secretion at 0.2 to 0.8 uM pretreated with LPS for 3 hrs followed by incubation with compound for 40 mins and later stimulated with MSU for 12 hrs by ELISA; format: cell-based; conditions: dose 0.2-0.8 µM, time 760.0 min
[8] = MRT (0 to t) in BALB/c mouse at 10 mg/kg, iv; format: ADME, organism-based; conditions: in vivo
Mus musculus [9] = assay: Antiinflammatory activity against DSS-induced ulcerative colitis C57BL/6 mouse model assessed as decrease in NLRP3 protein expression in colon at 30 mg/kg, ip fed with DSS for 6 days followed by administration with compound for 5 days and measured on day 11 by western blot analysis; format: functional, organism-based; conditions: time 5.0 day
[10] = biological target: NLR family CARD domain-containing protein 4 (Mus musculus) (UniProt Q3UP24); assay: Inhibition of NLRC4 inflammasome in C57BL/6 mouse BMDM cells assessed as inhibition of LPS/flagellin-induced IL-1 beta secretion at 0.2 to 0.8 uM pretreated with LPS for 3 hrs followed by incubation with compound for 40 mins and later stimulated with flagellin for 6 hrs by ELISA; format: cell-based; conditions: dose 0.2-0.8 µM, time 400.0 min
Chain of NLR family CARD domain-containing protein 4 (Mus musculus) (Q3UP24 whole entry, the tested form may be a part): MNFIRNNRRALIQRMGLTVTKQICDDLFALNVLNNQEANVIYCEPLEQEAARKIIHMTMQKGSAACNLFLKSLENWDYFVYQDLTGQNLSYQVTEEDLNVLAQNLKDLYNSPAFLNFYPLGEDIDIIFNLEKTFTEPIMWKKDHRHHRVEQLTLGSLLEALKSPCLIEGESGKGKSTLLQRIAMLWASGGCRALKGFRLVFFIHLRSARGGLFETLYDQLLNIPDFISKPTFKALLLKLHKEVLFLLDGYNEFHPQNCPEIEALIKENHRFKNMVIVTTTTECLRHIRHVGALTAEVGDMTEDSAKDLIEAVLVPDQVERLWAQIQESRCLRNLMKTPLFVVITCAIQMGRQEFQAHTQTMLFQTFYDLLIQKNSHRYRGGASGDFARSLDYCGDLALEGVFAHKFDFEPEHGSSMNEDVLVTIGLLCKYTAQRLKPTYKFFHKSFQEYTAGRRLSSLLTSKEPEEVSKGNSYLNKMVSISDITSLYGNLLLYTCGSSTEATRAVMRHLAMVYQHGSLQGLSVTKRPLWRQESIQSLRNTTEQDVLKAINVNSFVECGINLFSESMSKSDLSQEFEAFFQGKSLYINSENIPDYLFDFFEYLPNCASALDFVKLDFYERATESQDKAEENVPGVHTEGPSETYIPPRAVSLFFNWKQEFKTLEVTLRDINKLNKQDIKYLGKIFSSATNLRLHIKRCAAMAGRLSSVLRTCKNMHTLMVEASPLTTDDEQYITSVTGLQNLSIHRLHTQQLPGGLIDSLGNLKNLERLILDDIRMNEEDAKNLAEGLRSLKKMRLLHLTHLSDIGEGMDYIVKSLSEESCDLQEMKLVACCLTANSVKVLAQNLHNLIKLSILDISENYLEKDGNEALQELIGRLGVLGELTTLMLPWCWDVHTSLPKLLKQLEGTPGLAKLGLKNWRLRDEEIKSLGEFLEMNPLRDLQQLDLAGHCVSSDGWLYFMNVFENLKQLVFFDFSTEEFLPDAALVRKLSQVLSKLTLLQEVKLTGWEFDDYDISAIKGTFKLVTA

THP-1 [11] = assay: Inhibition of lysosomal damage in PMA-differentiated human THP-1 cells at 0.2 to 45 uM pretreated with LPS for 3 hrs followed by incubation with compound for 40 mins and later stimulated with nigericin for 35 mins by AO staining based analysis; format: functional, cell-based; conditions: dose 0.2-45 µM, time 75.0 min
THP-1 [12] = assay: Effect on NLRP3 protein expression in PMA-differentiated human THP-1 cells at 0.2 to 0.8 uM pretreated with compound for 40 mins followed by LPS challenge for 3 hrs by western blot analysis; format: functional, cell-based; conditions: dose 0.2-0.8 µM, time 220.0 min
[13] = AUC (0 to t) in BALB/c mouse at 10 mg/kg, po; format: ADME, organism-based; set-up: dose 10 mg/kg, route po; conditions: in vivo
Mus musculus [14] = assay: Antiinflammatory activity against DSS-induced ulcerative colitis C57BL/6 mouse model assessed as decrease in colon length shortening at 10 to 30 mg/kg, ip fed with DSS for 6 days followed by administration with compound for 5 days and measured on day 11; format: functional, organism-based; conditions: dose 10-30 mg/kg, time 5.0 day
[15] = MRT (0 to t) in BALB/c mouse at 10 mg/kg, po; format: ADME, organism-based; conditions: in vivo
THP-1 [16] = assay: Cytotoxicity against PMA-differentiated human THP-1 cells assessed as cell viability at 0.16 to 20 uM incubated for 24 hrs by CCK8 assay; format: toxicity, cell-based; conditions: thp-1, 24 h, dose 0.16-20 µM
Homo sapiens [17] = organism: Homo sapiens; assay: Binding affinity to N-terminal GST-tagged human NLRP3deltaLRR mutant (1 to 649 residues) expressed in Escherichia coli BL21 assessed as increase in protein thermal stability at 10 to 20 uM at 48 to 72 degC by CETSA analysis; conditions: dose 10-20 µM
Homo sapiens [18] = organism: Homo sapiens; assay: Binding affinity to N-terminal GST-tagged human NLRP3deltaLRR mutant (1 to 649 residues) expressed in Escherichia coli BL21 assessed as decrease in pronase-mediated protein degradation at 1 to 100 uM incubated with compound for 50 mins followed by pronase digestion for 30 mins by DARTS analysis; conditions: dose 1-100 µM, time 80.0 min
THP-1 [19] = assay: Inhibition of Cl- efflux in PMA-differentiated human THP-1 cells at 0.8 to 45 uM pretreated with LPS for 3 hrs followed by incubation with compound for 40 mins and later stimulated with nigericin for 35 mins; format: functional, cell-based; conditions: dose 0.8-45 µM, time 75.0 min
BMDM = assay: Cytotoxicity against C57BL/6 mouse BMDM cells assessed as cell viability at 0.16 to 20 uM incubated for 24 hrs by CCK8 assay; format: toxicity, cell-based; conditions: dose 0.16-20 µM
[20] = Oral bioavailability in BALB/c mouse at 10 mg/kg; format: ADME, organism-based; conditions: in vivo
Mus musculus [21] = assay: Antiinflammatory activity against DSS-induced ulcerative colitis C57BL/6 mouse model assessed as improvement in crypt deformation in colon at 10 to 30 mg/kg, ip fed with DSS for 6 days followed by administration with compound for 5 days and measured on day 11 by H and E staining based analysis; format: functional, organism-based; conditions: dose 10-30 mg/kg, time 5.0 day
[22] = biological target: NACHT, LRR and PYD domains-containing protein 3 (Mus musculus) (UniProt Q8R4B8); assay: Inhibition of NLRP3 inflammasome in C57BL/6 mouse BMDM cells assessed as inhibition of IL-1 beta secretion at 0.2 to 0.8 uM pretreated with Pam3CSK4 for 3 hrs followed by incubation with compound for 40 mins and later stimulated with cytosolic LPS for 16 hrs by ELISA; format: cell-based; conditions: dose 0.2-0.8 µM, time 1000.0 min
[23] = Cmax in BALB/c mouse at 10 mg/kg, po; format: ADME, organism-based; set-up: dose 10 mg/kg, route po; conditions: in vivo
Mus musculus [24] = assay: Antiinflammatory activity against DSS-induced ulcerative colitis C57BL/6 mouse model assessed as decrease in disease activity index at 20 to 30 mg/kg, ip fed with DSS for 6 days followed by administration with compound for 5 days; format: functional, organism-based; conditions: dose 20-30 mg/kg, time 5.0 day
[25] = Cmax in BALB/c mouse at 10 mg/kg, iv; format: ADME, organism-based; set-up: dose 10 mg/kg, route iv; conditions: in vivo
[26] = AUC (0 to t) in BALB/c mouse at 10 mg/kg, iv; format: ADME, organism-based; set-up: dose 10 mg/kg, route iv; conditions: in vivo
[27] = Half life in BALB/c mouse at 10 mg/kg, po; format: ADME, organism-based; conditions: in vivo

IC50 [1]: 380 nM | Tmax [3]: 1 h | inhibition [4]: Active | inhibition [7]: Active | MRT last [8]: 1.54 h | inhibition [10]: inactive | AUC(0-t) [13]: 1170 ng·h/mL | MRT last [15]: 3.27 h | Activity (Homo sapiens [17]): Active | Activity (Homo sapiens [18]): Active | bioavailability [20]: 22.5% | inhibition [22]: Active | Cmax [23]: 437 ng/mL | Cmax [25]: 3890 ng/mL | AUC(0-t) [26]: 5210 ng·h/mL | half-life [27]: 1.31 h
Compound: CC(C)c1nn(Cc2nnc(-c3ccc(C(F)(F)F)nc3Cl)o2)c(=O)c2cc3sc(Cl)cc3n12
Activity (THP-1 [2]): inactive | Activity (THP-1 [5]): inactive | Activity (Mus musculus [6]): Active | Activity (Mus musculus [9]): Active | inhibition (THP-1 [11]): inactive | Activity (THP-1 [12]): inactive | Activity (Mus musculus [14]): Active | Activity (THP-1 [16]): Non-Toxic | inhibition (THP-1 [19]): inactive | Activity (BMDM): Non-Toxic | Activity (Mus musculus [21]): Active | Activity (Mus musculus [24]): Active
